Data from the Kinase Knowledgebase extract (Sharma et al. 2016).

Legend:
MAPK14 (human) = MAPK14 (human) (UniProt Q16539); experiment: p38 Enzyme Inhibition Assay
[1] = target: MAPK14 (human), Q16539 [p38(A157V) Mutant Enzyme Inhibition Assay]; experiment: p38(A157V) Mutant Enzyme Inhibition Assay
[2] = target: MAPK14 (human), Q16539 [p38(M109A) Mutant Enzyme Inhibition Assay]; experiment: p38(M109A) Mutant Enzyme Inhibition Assay
MAPK14 (human), Q16539 [p38(M109A) Mutant Enzyme Inhibition Assay], sequence (Q16539 whole entry, looked up, stated change not applied): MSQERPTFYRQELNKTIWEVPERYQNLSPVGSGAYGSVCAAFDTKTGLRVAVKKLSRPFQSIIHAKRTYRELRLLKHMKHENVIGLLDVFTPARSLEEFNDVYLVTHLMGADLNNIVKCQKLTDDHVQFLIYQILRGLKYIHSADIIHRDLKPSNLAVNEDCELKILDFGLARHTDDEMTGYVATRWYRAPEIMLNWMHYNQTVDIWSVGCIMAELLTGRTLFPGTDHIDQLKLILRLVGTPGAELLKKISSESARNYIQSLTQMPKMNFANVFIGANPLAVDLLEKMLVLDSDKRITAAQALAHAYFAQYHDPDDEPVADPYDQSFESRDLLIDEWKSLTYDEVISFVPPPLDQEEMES

MAPK14 (human), Q16539 [p38(A157V) Mutant Enzyme Inhibition Assay], sequence (Q16539 whole entry, looked up, stated change not applied): as above
MAPK14 (human), sequence (Q16539 whole entry, looked up): as the sequence (Q16539 whole entry, looked up, stated change not applied) above

Compound | IC50 (MAPK14 (human)) | IC50 [1] | IC50 [2]
Cn1c(C2CCNCC2)nc(-c2cccc(C(F)(F)F)c2)c1-c1ccncc1 | 7 nM | < 0.5 nM | 46 nM
C[C@H](Nc1cc(-c2nc(C3CCCNC3)n(C)c2-c2cccc(C(F)(F)F)c2)ccn1)c1ccccc1 (some centres not stated) | 94 nM | 13 nM | 712 nM
C[S+]([O-])c1ccc(-c2cc(-c3ccc(F)c(F)c3)c(-c3ccncc3)[nH]2)cc1 (configuration not stated) | 12 nM | 450 nM | 37 nM
C[S+]([O-])c1ccc(-c2cc(-c3ccc(F)cc3)c(-c3ccncc3)[nH]2)cc1 (configuration not stated) | 4 nM | 58 nM | 7.5 nM
